Reference: ChEMBL document CHEMBL3124754, “Delivery of a lactose derivative of endomorphin 1 to the brain via the olfactory epithelial pathway” (Bioorg Med Chem Lett, 2014)

Key:
Brain [1] = assay: Drug uptake in rat brain homogenate at 6.5 uM after 30 mins by LC-MS/MS analysis; assay type: ADME, tissue-based; settings: in vivo, 0.5 h
[2] = Drug uptake in Sprague-Dawley rat brain at 2 mg/kg administered via nasal cavity after 10 mins; assay type: ADME, organism-based; set-up: dose 2 mg/kg; settings: inhaled or intranasal, read-out: Drug uptake
[3] = Half life in human plasma by RP-HPLC analysis; assay type: ADME, cell-free
[4] = Drug uptake in Sprague-Dawley rat olfactory bulb at 2 mg/kg administered via nasal cavity after 10 mins; assay type: ADME, organism-based; set-up: dose 2 mg/kg; settings: inhaled or intranasal, read-out: Drug uptake
[5] = Drug uptake in Sprague-Dawley rat blood at 2 mg/kg administered via nasal cavity after 10 mins; assay type: ADME, organism-based; set-up: dose 2 mg/kg; settings: inhaled or intranasal, read-out: Drug uptake
Brain [6] = assay: Drug uptake in rat brain homogenate at 18.2 uM after 30 mins by LC-MS/MS analysis; assay type: ADME, tissue-based; settings: in vivo, 0.5 h
Plasma = assay: Drug degradation in human plasma assessed as N-lactose endomorphin1 formation after 2 mins by RP-HPLC analysis; assay type: ADME, cell-free

Row | SMILES | Drug uptake (Brain [1]) [µM] | concentration at 10 min [2] [nM] | half-life [3] [min] | concentration at 10 min [4] [nM] | concentration at 10 min [5] [nM] | Drug uptake (Brain [6]) [µM] | Stability (Plasma)
1 | NC(=O)[C@H](Cc1ccccc1)NC(=O)[C@H](Cc1c[nH]c2ccccc12)NC(=O)[C@@H]1CCCN1C(=O)[C@H](Cc1ccc(O)cc1)NC(=O)CCC(=O)N[C@@H]1O[C@H](CO)[C@@H](O[C@@H]2O[C@H](CO)[C@H](O)[C@H](O)[C@H]2O)[C@H](O)[C@H]1O | 3.4 | 4 | 12.9 | 514 | 1.6 | 18.12 | –
2 | CC(=O)OC[C@H]1O[C@@H](O[C@H]2[C@H](OC(C)=O)[C@@H](OC(C)=O)[C@H](NC(=O)CCC(=O)N[C@@H](Cc3ccc(O)cc3)C(=O)N3CCC[C@H]3C(=O)N[C@@H](Cc3c[nH]c4ccccc34)C(=O)N[C@@H](Cc3ccccc3)C(N)=O)O[C@@H]2COC(C)=O)[C@H](OC(C)=O)[C@@H](OC(C)=O)[C@H]1OC(C)=O | – | – | – | – | – | – | Unstable
3 | NC(=O)[C@H](Cc1ccccc1)NC(=O)[C@H](Cc1c[nH]c2ccccc12)NC(=O)[C@@H]1CCCN1C(=O)[C@@H](N)Cc1ccc(O)cc1 [ENDOMORPHIN-1] | – | – | 5.9 | – | – | – | –
